ChEMBL document CHEMBL1142262, “New QSAR combined strategy for the design of A1 adenosine receptor agonists” (Bioorg Med Chem, 2008)

These molecules were tested against T1, Adenosine receptor A1 (Rattus norvegicus) (UniProt P25099) (assay: Displacement of [3H]R-N6-phenylisopropyladenosine from adenosine A1 receptor in rat cerebral cortical membrane at 100 uM). Conditions: not given.
T1 sequence (whole entry): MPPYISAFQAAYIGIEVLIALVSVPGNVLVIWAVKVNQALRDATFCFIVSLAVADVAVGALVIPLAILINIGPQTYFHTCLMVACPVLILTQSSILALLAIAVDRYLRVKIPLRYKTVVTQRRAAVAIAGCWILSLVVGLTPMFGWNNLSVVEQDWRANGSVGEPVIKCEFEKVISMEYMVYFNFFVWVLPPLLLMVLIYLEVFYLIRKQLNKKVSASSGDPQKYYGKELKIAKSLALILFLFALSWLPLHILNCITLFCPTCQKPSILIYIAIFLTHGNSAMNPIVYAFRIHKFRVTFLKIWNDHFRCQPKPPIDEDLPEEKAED
Format: cell membranes

SMILES | inhibition [%]
CNC(=O)C1CCCC1n1cnc2c(N)ncnc21 (racemic) | 25
CNC(=O)C1CC=CC1n1cnc2c(NC3CCCC3)ncnc21 (racemic) | < 10
CNC(=O)C1CC=CC1n1cnc2c(NC3CC3)ncnc21 (racemic) | 50
CNC(=O)C1CCCC1n1cnc2c(NCc3ccccc3I)ncnc21 (racemic) | < 10
CNC(=O)C1CCCC1n1cnc2c(NC3CCCC3)ncnc21 (racemic) | 31
CNC(=O)C1CC=CC1n1cnc2c(NCc3ccccc3)ncnc21 (racemic) | < 10
CNC(=O)C1CC=CC1n1cnc2c(N)ncnc21 (racemic) | 22
NNc1ncnc2c1ncn2C1C=CCC1CO (racemic) | 29
CNC(=O)C1CCCC1n1cnc2c(NC3CC3)ncnc21 (racemic) | < 10
CNC(=O)C1CCCC1n1cnc2c(NCc3ccccc3)ncnc21 (racemic) | 26

What follows are molecules tested against T2, Adenosine receptor A1 (Rattus norvegicus, UniProt P25099) (assay: Displacement of [3H]R-N6-phenylisopropyladenosine from adenosine A1 receptor in rat cerebral cortical membrane). Conditions: read-out: -Log Ki (converted).
T2 sequence (P25099 whole entry): T1 sequence (whole entry)
Format: cell membranes

SMILES | Ki [µM]
OCC1CC=CC1n1cnc2c(NC3CCCC3)ncnc21 (racemic) | 333

Same assay, conditions: read-out: Ki

SMILES | Ki [µM]
OCC1CC=CC1n1cnc2c(NCc3ccccc3I)ncnc21 (racemic) | 25.5
OCC1CC=CC1n1cnc2c(NC3CCCC3)ncnc21 (racemic) | 3
OCC1CC=CC1n1cnc2c(NC3CC3)ncnc21 (racemic) | 32.3
